Laboratory results reported in patent US7371773B2, “Breast cancer resistance protein (BCRP) inhibitor” (Kabushiki Kaisha Yakult Honsha, priority 2003, dated 2008).
≈ marks a conversion by molar mass, not a printed value. Read-outs that look alike come from different tables or passages of the source.

Legend:
[1] = tested on: A549 cell line; test: Anticancer drug sensitivity test, A549 cell line; type: cell-based, human; details: culturing 48 hours
Protocol: (§1) The A549 cell line or each of the A549/SN-38-1 to 6 was suspended in 10% FBS/Ham's F-12, and the resultant suspension was inoculated into a 96-well microplate, followed by culturing at 5% CO2 and 37° C. overnight. Thereafter, a solution of an anticancer drug in 10% FBS/Ham's F-12 (50 μL) was added to each of the wells, followed by culturing at 5% CO2 and 37° C. for 48 hours. After completion of culturing, the number of viable cells was counted by use of a viable cell counting reagent [TetraColor ONE (trade name), product of Seikagaku Corporation] according to the attached instruction manual. […] “Relative resistance value” is obtained by dividing the IC50 for an A549/SN-38 cell line by the IC50 for the A549 cell line. The greater the relative resistance value, the higher the level of acquired resistance.

[2] = tested on: A549/SN-38-1 cell line; test: Anticancer drug sensitivity test, A549/SN-38-1; type: cell-based, human; details: for IC50: A549/SN-38-1, culturing 48 hours; for Relative resistance value: IC50 for A549/SN-38-1 divided by IC50 for A549
Protocol: (§2) Human non-small cell lung cancer A549 cell line was subcultured at 5% CO2 and 37° C. by use of a Ham's F-12 medium containing 10% FBS, 100 U/mL of penicillin, and 100 μg/mL of streptomycin (10% FBS/Ham's F-12). SN-38-resistant A549 cell lines were selected by subculturing the A549 cell line in a medium for two months while the concentration of SN-38 contained in the medium was increased in a stepwise manner (4 to 10 ng/mL). Subsequently, the resultant SN-38-resistant A549 cell lines were subjected to cloning by means of limiting dilution, to thereby establish six cloned SN-38-resistant A549 cell lines (A549/SN-38-1 to 6).
as §1

[3] = tested on: A549/SN-38-2 cell line; test: Anticancer drug sensitivity test, A549/SN-38-2; type: cell-based, human; details: for IC50: A549/SN-38-2, culturing 48 hours; for Relative resistance value: IC50 for A549/SN-38-2 divided by IC50 for A549
Protocol: as §2, §1

[4] = tested on: A549/SN-38-3 cell line; test: Anticancer drug sensitivity test, A549/SN-38-3; type: cell-based, human; details: for IC50: A549/SN-38-3, culturing 48 hours; for Relative resistance value: IC50 for A549/SN-38-3 divided by IC50 for A549
Protocol: as §2, §1

[5] = tested on: A549/SN-38-4 cell line; test: Anticancer drug sensitivity test, A549/SN-38-4; type: cell-based, human; details: for IC50: A549/SN-38-4, culturing 48 hours; for Relative resistance value: IC50 for A549/SN-38-4 divided by IC50 for A549
Protocol: as §2, §1

[6] = tested on: A549/SN-38-5 cell line; test: Anticancer drug sensitivity test, A549/SN-38-5; type: cell-based, human; details: for IC50: A549/SN-38-5, culturing 48 hours; for Relative resistance value: IC50 for A549/SN-38-5 divided by IC50 for A549
Protocol: as §2, §1

[7] = tested on: A549/SN-38-6 cell line; test: Anticancer drug sensitivity test, A549/SN-38-6; type: cell-based, human; details: for IC50: A549/SN-38-6, culturing 48 hours; for Relative resistance value: IC50 for A549/SN-38-6 divided by IC50 for A549
Protocol: as §2, §1

[8] = tested on: A549/SN-38-4 cell line; test: Overcoming anticancer drug resistance of A549/SN-38-4 cell line; type: cell-based, human; details: Homo sapiens, A549; SN-38 resistance, concentration for 50% reduction of relative resistance value, 48 hours; read-out: Resistance overcoming effect EC50
Protocol: The effect of a diphenylacrylonitrile derivative on BCRP-mediated anticancer drug resistance was studied by use of the human lung cancer A549/SN-38-4 cell line, which had acquired anticancer drug resistance through BCRP expression. The human lung cancer A549 cell line or the A549/SN-38-4 cell line was suspended in 10% FBS/Ham's F-12, and the resultant suspension was inoculated into a 96-well microplate, followed by culturing at 5% CO2 and 37° C. overnight (2×10^3 cells/50 μL/well). Thereafter, a 10% FBS/Ham's F-12 solution (25 μL) containing a diphenylacrylonitrile derivative and SN-38 or mitoxantrone was added to each of the wells, followed by culturing at 5% CO2 and 37° C. for 48 hours. After completion of culturing, the number of viable cells was counted by use of TetraColor ONE according to the attached instruction manual. […] The greater the relative resistance value, the higher the level of acquired resistance.

[9] = tested on: MES-SA/Dx5 cell line; test: Effect on multidrug resistance of MES-SA/Dx5 cell line; type: cell-based; details: Homo sapiens; paclitaxel resistance, MES-SA/Dx5 (P-glycoprotein overexpression), 48 hours; read-out: Resistance overcoming effect EC50
Protocol: Human uterine cancer MES-SA cell line or MES-SA/Dx5 cell line which had acquired multidrug resistance through overexpression of P-glycoprotein [Cancer Res. 45, 4091-4096 (1985)] was suspended in 10% FBS/DMEM, and the resultant suspension was inoculated into a 96-well microplate, followed by culturing at 5% CO2 and 37° C. overnight (3×10^3 cells/50 μL/well). Thereafter, a solution of a diphenylacrylonitrile derivative and paclitaxel in 10% FBS/DMEM (25 μL) was added to each of the wells, followed by culturing at 5% CO2 and 37° C. for 48 hours. After completion of culturing, the number of viable cells was counted by use of TetraColor ONE according to the attached instruction manual.

[10] = tested on: P388/BCRP cell line; test: Overcoming anticancer drug resistance in vivo (survival of tumor-implanted mice); parameters: species or system CDF1 mice; details: Table 6; compound 100 mg/kg/day + CPT-11 20 mg/kg/day i.p. once a day, 10 administrations
[11] = tested on: A549/SN-38 cell lines; test: Anticancer drug sensitivity test, A549/SN-38 cell lines as a group; type: cell-based, human; details: BCRP substrates

SMILES	IC50 ([1]; Homo sapiens, read-out: IC50) [mg/L]	IC50 ([2]; Homo sapiens, read-out: IC50) [mg/L]	Relative resistance value [2]	IC50 ([3]; Homo sapiens, read-out: IC50) [mg/L]	Relative resistance value [3]	IC50 ([4]; Homo sapiens, read-out: IC50) [mg/L]	Relative resistance value [4]	IC50 ([5]; Homo sapiens, read-out: IC50) [mg/L]	Relative resistance value [5]	IC50 ([6]; Homo sapiens, read-out: IC50) [mg/L]	Relative resistance value [6]	IC50 ([7]; Homo sapiens, read-out: IC50) [mg/L]	Relative resistance value [7]	EC50 [8] [mg/L]	EC50 [9] [mg/L]	Survival days Mean ± S.D. [10] [days]	T/C [10] [%]	further results
O=c1[nH]cc(F)c(=O)[nH]1 [5-Fluorouracil]	2.1 (≈ 16.1 µM)	4.3 (≈ 33.1 µM)	(2.0)	1.3 (≈ 9.99 µM)	(0.6)	0.69 (≈ 5.3 µM)	(0.3)	0.91 (≈ 7 µM)	(0.4)	1.7 (≈ 13.1 µM)	(0.8)	1 (≈ 7.69 µM)	(0.5)	–	–	–	–	–
N.N.[Cl][Pt][Cl] [Cisplatin]	–	–	(0.8)	–	(0.9)	–	(0.8)	–	(0.9)	–	(0.9)	–	(0.9)	–	–	–	–	IC50 [1]: 18.6 mg/L; IC50 [2]: 15.1 mg/L; IC50 [3]: 16.5 mg/L; IC50 [4]: 15.1 mg/L; IC50 [5]: 17.0 mg/L; IC50 [6]: 15.9 mg/L; IC50 [7]: 16.8 mg/L
COc1ccc(/C(C#N)=C/c2cccc(O)c2)cc1OC [Compound 5, (Z)-2-(3,4-dimethoxy-phenyl)-3-(3-hydroxy-phenyl)-acrylonitrile]	–	–	–	–	–	–	–	–	–	–	–	–	–	0.021 (≈ 0.0747 µM)	> 1	19.2 ± 1.1	160	–
COc1cc(/C=C(\C#N)c2ccc(OC)c(OC)c2)ccc1O [Compound 7, (Z)-2-(3,4-dimethoxy-phenyl)-3-(4-hydroxy-3-methoxy-phenyl)-acrylonitrile]	–	–	–	–	–	–	–	–	–	–	–	–	–	0.025 (≈ 0.0803 µM)	> 1	20.0 ± 0.7	167	–
COc1ccc(/C(C#N)=C/c2ccc(O)c(O)c2)cc1OC [Compound 8, (Z)-3-(3,4-dihydroxy-phenyl)-2-(3,4-dimethoxy-phenyl)-acrylonitrile]	–	–	–	–	–	–	–	–	–	–	–	–	–	0.035 (≈ 0.118 µM)	> 1	19.2 ± 0.8	160	–
CCOc1cc(/C=C(\C#N)c2ccc(OC)c(OC)c2)ccc1O [Compound 11, (Z)-2-(3,4-dimethoxy-phenyl)-3-(3-ethoxy-4-hydroxy-phenyl)-acrylonitrile]	–	–	–	–	–	–	–	–	–	–	–	–	–	0.047 (≈ 0.144 µM)	> 1	19.4 ± 0.5	162	–
COc1ccc(/C(C#N)=C/c2cccc(F)c2)cc1OC [Compound 13, (Z)-2-(3,4-dimethoxy-phenyl)-3-(3-fluoro-phenyl)-acrylonitrile]	–	–	–	–	–	–	–	–	–	–	–	–	–	0.013 (≈ 0.0459 µM)	> 1	20.6 ± 0.9	172	–
N#C/C(=C\c1ccc(O)cc1)c1ccc(O)cc1 [Compound 16, (Z)-2,3-bis-(4-hydroxy-phenyl)-acrylonitrile]	–	–	–	–	–	–	–	–	–	–	–	–	–	0.098 (≈ 0.413 µM)	> 1	19.2 ± 0.4	160	–
COc1cccc2c1C(=O)c1c(O)c3c(c(O)c1C2=O)C[C@@](O)(C(=O)CO)C[C@@H]3O[C@H]1C[C@H](N)[C@H](O)[C@H](C)O1 [Doxorubicin]	0.1 (≈ 0.184 µM)	0.19 (≈ 0.35 µM)	(1.9)	0.14 (≈ 0.258 µM)	(1.4)	0.12 (≈ 0.221 µM)	(1.3)	0.22 (≈ 0.405 µM)	(2.3)	0.057 (≈ 0.105 µM)	(0.6)	0.049 (≈ 0.0902 µM)	(0.5)	–	–	–	–	–
COc1cc([C@@H]2c3cc4c(cc3[C@@H](O[C@@H]3O[C@@H]5CO[C@@H](C)O[C@H]5[C@H](O)[C@H]3O)[C@H]3COC(=O)[C@H]23)OCO4)cc(OC)c1O [Etoposide]	0.9 (≈ 1.53 µM)	0.27 (≈ 0.459 µM)	(0.3)	0.8 (≈ 1.36 µM)	(1.0)	1.6 (≈ 2.72 µM)	(1.9)	3.5 (≈ 5.95 µM)	(4.0)	2.3 (≈ 3.91 µM)	(2.7)	1 (≈ 1.7 µM)	(1.1)	–	–	–	–	–
Nc1ccn([C@@H]2O[C@H](CO)[C@@H](O)C2(F)F)c(=O)n1 [Gemcitabine]	0.009 (≈ 0.0342 µM)	0.0039 (≈ 0.0148 µM)	(0.4)	0.0053 (≈ 0.0201 µM)	(0.6)	0.004 (≈ 0.0152 µM)	(0.4)	0.0032 (≈ 0.0122 µM)	(0.4)	0.004 (≈ 0.0152 µM)	(0.4)	0.004 (≈ 0.0152 µM)	(0.4)	–	–	–	–	–
CO[C@@]12[C@H](COC(N)=O)C3=C(C(=O)C(C)=C(N)C3=O)N1C[C@@H]1N[C@@H]12 [Mitomycin C]	–	–	(1.2)	–	(1.1)	–	(0.3)	–	(1.4)	–	(1.0)	–	(0.4)	–	–	–	–	IC50 [1]: 0.11 mg/L (≈ 0.329 µM); IC50 [2]: 0.13 mg/L (≈ 0.389 µM); IC50 [3]: 0.11 mg/L (≈ 0.329 µM); IC50 [4]: 0.0029 mg/L (≈ 0.00867 µM); IC50 [5]: 0.15 mg/L (≈ 0.449 µM); IC50 [6]: 0.11 mg/L (≈ 0.329 µM); IC50 [7]: 0.047 mg/L (≈ 0.141 µM)
CC(=O)O[C@H]1C(=O)[C@@]2(C)[C@H]([C@H](OC(=O)c3ccccc3)[C@]3(O)C[C@H](OC(=O)[C@H](O)[C@@H](NC(=O)c4ccccc4)c4ccccc4)C(C)=C1C3(C)C)[C@]1(OC(C)=O)CO[C@@H]1C[C@@H]2O [Paclitaxel]	0.0049 (≈ 0.00574 µM)	0.0098 (≈ 0.0115 µM)	(2.0)	0.012 (≈ 0.0141 µM)	(2.4)	0.013 (≈ 0.0152 µM)	(2.7)	0.014 (≈ 0.0164 µM)	(2.8)	0.0061 (≈ 0.00714 µM)	(1.2)	0.0071 (≈ 0.00831 µM)	(1.4)	–	–	–	–	–
O=C1c2c(O)ccc(O)c2C(=O)c2c(NCCNCCO)ccc(NCCNCCO)c21 [mitoxantrone]	–	–	–	–	–	–	–	–	–	–	–	–	–	–	–	–	–	Resistance of A549/SN-38 cell lines to the anticancer drug [11]: particularly strong resistance
